This passage reports IC50 results from ChEMBL document CHEMBL4028801, “A multifactorial approach to hepatobiliary transporter assessment enables improved therapeutic compound development” (Toxicol Sci, 2013).

As usually defined, the IC50 is the midpoint of a concentration-inhibition curve.

Where a name gives a salt, the structure may show the parent alone.

The target of one assay is Bile salt export pump (Homo sapiens, UniProt O95342). As to the kind of experiment: Inhibition of human BSEP overexpressed in Sf9 cell membrane vesicles assessed as uptake of [3H]-taurocholate in presence of ATP measured after 15 to 20 mins by membrane vesicle transport assay. Format: ADME, cell-based.
Chain of Bile salt export pump (O95342 whole entry): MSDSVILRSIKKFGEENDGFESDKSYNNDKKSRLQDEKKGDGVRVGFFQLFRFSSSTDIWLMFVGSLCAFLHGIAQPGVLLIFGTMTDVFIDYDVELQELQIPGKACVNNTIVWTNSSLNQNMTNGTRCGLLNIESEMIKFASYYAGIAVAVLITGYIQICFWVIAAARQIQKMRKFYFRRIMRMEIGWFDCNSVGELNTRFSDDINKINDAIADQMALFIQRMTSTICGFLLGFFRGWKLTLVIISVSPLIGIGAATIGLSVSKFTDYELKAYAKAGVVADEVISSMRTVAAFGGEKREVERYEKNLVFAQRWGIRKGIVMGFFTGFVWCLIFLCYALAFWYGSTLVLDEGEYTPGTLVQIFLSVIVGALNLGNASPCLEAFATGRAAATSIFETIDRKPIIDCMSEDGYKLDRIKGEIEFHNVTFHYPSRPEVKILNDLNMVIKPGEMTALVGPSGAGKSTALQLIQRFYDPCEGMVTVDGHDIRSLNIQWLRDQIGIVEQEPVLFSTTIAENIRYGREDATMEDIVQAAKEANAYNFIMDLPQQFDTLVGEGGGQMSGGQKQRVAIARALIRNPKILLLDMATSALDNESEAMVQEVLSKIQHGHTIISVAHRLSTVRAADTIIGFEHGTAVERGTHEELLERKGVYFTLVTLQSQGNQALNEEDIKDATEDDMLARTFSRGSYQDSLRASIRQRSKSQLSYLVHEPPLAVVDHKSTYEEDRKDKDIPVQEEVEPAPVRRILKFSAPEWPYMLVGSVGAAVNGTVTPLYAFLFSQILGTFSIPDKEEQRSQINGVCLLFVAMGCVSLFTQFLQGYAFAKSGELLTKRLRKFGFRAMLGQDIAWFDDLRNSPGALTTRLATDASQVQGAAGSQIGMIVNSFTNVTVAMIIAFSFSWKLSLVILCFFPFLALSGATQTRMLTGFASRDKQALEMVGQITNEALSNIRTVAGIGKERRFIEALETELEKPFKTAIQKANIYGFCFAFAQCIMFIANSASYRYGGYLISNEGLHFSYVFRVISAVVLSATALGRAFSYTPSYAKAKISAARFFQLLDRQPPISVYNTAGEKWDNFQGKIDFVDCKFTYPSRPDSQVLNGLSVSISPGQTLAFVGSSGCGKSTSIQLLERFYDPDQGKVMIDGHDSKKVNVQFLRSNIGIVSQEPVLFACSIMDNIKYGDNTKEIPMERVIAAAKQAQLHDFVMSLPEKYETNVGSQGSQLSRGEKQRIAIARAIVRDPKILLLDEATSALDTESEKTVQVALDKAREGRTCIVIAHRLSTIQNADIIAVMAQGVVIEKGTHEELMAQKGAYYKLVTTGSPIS
The target in assay [1] is ATP-binding cassette sub-family C member 2 (Homo sapiens, UniProt Q92887). As to the kind of experiment: Inhibition of human MRP2 overexpressed in Sf9 cell membrane vesicles assessed as uptake of [3H]-estradiol-17beta-D-glucuronide in presence of ATP and GSH measured after 20 mins by membrane vesicle transport assay.
Chain of ATP-binding cassette sub-family C member 2 (Q92887 whole entry): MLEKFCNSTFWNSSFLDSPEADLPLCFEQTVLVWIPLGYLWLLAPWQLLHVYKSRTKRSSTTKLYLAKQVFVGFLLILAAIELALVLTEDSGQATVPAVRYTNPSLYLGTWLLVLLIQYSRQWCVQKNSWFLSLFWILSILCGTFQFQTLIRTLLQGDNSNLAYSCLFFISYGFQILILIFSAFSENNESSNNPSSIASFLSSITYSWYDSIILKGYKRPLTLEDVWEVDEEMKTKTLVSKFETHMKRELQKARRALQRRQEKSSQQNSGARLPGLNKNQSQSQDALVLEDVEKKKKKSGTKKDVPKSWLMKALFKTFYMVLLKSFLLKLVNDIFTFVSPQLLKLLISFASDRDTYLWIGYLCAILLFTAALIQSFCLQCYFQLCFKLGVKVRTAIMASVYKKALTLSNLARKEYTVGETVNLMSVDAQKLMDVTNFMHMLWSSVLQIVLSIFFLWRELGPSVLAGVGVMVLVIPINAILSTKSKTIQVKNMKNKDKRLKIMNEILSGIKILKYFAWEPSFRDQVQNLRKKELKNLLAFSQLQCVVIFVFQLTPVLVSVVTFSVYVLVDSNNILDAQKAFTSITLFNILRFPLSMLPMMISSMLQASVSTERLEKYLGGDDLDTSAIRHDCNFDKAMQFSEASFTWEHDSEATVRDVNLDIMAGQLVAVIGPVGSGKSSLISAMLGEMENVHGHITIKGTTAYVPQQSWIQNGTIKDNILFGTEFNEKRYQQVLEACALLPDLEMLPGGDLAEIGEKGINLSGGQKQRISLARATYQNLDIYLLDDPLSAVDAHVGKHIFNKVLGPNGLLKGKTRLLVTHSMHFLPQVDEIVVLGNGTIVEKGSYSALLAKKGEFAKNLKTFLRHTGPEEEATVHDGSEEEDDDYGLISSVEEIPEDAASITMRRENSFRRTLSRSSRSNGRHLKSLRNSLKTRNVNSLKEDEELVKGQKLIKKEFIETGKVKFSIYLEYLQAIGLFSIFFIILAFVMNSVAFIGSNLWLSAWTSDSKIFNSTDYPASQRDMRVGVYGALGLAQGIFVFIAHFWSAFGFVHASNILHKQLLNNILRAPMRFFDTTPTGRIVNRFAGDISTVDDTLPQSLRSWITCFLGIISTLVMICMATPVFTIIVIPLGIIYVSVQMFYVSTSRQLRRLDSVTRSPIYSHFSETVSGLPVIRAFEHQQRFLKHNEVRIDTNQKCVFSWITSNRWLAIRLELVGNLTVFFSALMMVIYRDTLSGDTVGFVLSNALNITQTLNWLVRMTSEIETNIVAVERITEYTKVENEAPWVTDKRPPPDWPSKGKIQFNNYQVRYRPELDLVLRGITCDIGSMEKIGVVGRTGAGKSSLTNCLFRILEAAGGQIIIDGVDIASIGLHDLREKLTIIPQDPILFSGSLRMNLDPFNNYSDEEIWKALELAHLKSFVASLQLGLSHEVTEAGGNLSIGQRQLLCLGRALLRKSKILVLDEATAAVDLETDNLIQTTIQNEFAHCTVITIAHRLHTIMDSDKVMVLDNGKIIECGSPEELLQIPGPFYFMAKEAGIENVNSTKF
Assay [2] deals with ATP-binding cassette sub-family C member 3 (Homo sapiens, UniProt O15438). As to the kind of experiment: Inhibition of human MRP3 overexpressed in Sf9 insect cell membrane vesicles assessed as uptake of [3H]-estradiol-17beta-D-glucuronide in presence of ATP and GSH measured after 10 mins by membrane vesicle transport assay. Format: ADME, cell-based.
Chain of ATP-binding cassette sub-family C member 3 (O15438 whole entry): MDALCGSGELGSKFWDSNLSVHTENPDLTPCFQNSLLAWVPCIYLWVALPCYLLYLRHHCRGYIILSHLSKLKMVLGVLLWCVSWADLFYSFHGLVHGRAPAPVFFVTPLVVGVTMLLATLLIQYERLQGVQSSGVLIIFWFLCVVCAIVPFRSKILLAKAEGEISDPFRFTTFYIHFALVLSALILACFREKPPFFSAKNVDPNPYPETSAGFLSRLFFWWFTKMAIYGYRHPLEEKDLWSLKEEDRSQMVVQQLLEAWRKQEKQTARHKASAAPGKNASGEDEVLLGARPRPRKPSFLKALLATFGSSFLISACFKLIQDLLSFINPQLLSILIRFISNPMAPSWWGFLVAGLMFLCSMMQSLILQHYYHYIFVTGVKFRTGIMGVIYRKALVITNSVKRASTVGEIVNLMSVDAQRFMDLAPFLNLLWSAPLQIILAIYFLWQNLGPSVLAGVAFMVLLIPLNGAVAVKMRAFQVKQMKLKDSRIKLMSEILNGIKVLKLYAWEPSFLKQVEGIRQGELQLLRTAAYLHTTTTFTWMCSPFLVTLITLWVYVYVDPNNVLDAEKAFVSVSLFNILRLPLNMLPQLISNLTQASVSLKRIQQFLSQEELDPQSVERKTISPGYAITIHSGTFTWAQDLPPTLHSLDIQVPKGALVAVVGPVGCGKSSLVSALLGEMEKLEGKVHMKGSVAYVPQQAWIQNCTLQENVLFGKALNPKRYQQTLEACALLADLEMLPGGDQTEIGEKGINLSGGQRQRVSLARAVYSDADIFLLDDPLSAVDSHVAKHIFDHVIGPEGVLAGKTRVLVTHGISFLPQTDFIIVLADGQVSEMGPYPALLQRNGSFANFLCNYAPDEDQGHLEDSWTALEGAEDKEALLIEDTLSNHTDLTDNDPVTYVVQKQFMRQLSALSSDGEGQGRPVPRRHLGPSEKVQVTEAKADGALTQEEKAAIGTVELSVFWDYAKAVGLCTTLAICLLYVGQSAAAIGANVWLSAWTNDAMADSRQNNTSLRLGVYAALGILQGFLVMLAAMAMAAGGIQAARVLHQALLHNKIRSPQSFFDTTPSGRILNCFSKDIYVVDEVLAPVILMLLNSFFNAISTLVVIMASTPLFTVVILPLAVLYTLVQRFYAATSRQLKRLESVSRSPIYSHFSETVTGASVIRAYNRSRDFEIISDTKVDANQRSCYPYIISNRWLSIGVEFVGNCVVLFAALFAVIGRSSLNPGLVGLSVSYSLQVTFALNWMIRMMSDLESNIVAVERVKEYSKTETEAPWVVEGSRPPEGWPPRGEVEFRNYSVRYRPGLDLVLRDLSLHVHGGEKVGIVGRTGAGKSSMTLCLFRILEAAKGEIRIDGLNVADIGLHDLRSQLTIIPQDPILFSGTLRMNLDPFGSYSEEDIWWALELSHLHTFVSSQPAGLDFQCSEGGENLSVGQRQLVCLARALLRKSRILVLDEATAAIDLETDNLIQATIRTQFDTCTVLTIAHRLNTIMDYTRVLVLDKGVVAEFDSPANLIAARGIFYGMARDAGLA
In assay [3] the target is T1, ATP-binding cassette sub-family C member 4 (Homo sapiens, UniProt O15439).
T1 sequence (O15439 whole entry): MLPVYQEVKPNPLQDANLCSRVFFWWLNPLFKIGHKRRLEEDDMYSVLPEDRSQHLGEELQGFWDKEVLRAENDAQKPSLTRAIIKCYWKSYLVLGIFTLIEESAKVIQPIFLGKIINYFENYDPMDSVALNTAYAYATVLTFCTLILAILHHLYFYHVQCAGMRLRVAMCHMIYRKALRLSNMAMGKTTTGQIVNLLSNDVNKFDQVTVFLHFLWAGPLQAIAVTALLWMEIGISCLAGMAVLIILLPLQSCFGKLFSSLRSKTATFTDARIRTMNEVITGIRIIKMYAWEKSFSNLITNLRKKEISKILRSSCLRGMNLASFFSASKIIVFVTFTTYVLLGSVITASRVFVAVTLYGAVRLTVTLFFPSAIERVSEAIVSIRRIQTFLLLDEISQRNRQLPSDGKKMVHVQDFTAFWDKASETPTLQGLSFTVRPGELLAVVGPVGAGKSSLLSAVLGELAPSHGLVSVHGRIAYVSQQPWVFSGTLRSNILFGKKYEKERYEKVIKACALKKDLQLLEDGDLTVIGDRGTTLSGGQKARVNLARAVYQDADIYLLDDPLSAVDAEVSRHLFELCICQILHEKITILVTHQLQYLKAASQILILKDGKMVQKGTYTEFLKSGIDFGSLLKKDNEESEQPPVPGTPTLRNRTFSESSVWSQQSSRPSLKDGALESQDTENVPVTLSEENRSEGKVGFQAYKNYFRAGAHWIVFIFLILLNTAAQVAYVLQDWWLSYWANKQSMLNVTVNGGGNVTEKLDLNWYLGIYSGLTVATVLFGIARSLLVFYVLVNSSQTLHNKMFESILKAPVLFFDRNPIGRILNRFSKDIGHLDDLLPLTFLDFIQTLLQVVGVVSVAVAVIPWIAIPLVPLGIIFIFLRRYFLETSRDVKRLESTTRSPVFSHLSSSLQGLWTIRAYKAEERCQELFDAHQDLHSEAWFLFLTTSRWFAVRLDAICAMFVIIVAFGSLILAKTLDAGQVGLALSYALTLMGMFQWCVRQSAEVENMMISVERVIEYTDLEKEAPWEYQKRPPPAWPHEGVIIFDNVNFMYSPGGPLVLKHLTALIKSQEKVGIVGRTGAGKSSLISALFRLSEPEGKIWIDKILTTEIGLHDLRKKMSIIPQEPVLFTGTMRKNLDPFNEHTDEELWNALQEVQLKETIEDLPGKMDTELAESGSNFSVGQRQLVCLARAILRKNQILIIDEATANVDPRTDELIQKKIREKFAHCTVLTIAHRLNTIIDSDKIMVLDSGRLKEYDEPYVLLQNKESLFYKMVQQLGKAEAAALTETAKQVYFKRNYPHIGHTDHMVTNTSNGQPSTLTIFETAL
As to the kind of experiment: Inhibition of human MRP4 overexpressed in Sf9 cell membrane vesicles assessed as uptake of [3H]-estradiol-17beta-D-glucuronide in presence of ATP and GSH measured after 20 mins by membrane vesicle transport assay. Format: ADME, cell-based.

In the case of `CCN1CCN(C(=O)N[C@@H](C(=O)N[C@@H]2C(=O)N3[C@@H]2SC(C)(C)[C@@H]3C(=O)O)c2ccccc2)C(=O)C1=O` [PIPERACILLIN SODIUM], the IC50 (on Bile salt export pump; in assay [1]; in assay [2]; in assay [3]) was over 133 µM each time.

On to `c1cnc(N2CCN(Cc3ccc4c(c3)OCO4)CC2)nc1` [PIRIBEDIL], for which the IC50 (at Bile salt export pump; in assay [1]; in assay [2]; in assay [3]) was over 133 µM each time.

As to `Cc1cccc(Nc2cc(Cl)nc(SCC(=O)O)n2)c1C` [PIRINIXIC ACID], the IC50 on Bile salt export pump is 99 µM; in assay [1] it was over 133 µM; in assay [2], over 133 µM; in assay [3], 44.9 µM.

For `CN1C(C(=O)Nc2ccccn2)=C(O)c2ccccc2S1(=O)=O` [PIROXICAM], the IC50 (at Bile salt export pump; in assay [1]; in assay [2]; in assay [3]) was over 133 µM throughout.

Take `c1cc(CN2CCCNCCNCCCNCC2)ccc1CN1CCCNCCNCCCNCC1` [PLERIXAFOR]: the IC50 (at Bile salt export pump; in assay [1]; in assay [2]; in assay [3]) was over 133 µM throughout.

Turning to `CCCN[C@H]1CCc2nc(N)sc2C1` [PRAMIPEXOLE], the IC50 (on Bile salt export pump; in assay [1]; in assay [2]; in assay [3]) was over 133 µM each time.

As for `CC(C(=O)O)c1ccc2c(c1)Cc1cccnc1O2` (centres undefined) [PRANOPROFEN], the IC50 is over 133 µM on Bile salt export pump, over 133 µM in assay [1], over 133 µM in assay [2] and 9.8 µM in assay [3].

Consider `CC[C@H](C)C(=O)O[C@H]1C[C@H](O)C=C2C=C[C@H](C)[C@H](CC[C@@H](O)C[C@@H](O)CC(=O)O)[C@H]21` [PRAVASTATIN SODIUM], for which the IC50 on Bile salt export pump was over 133 µM; in assay [1] it was over 133 µM; in assay [2], 125 µM; in assay [3], over 133 µM.

`CC(C)C[C@H](CN)CC(=O)O` [PREGABALIN]: the IC50 (at Bile salt export pump; in assay [1]; in assay [2]; in assay [3]) was over 133 µM throughout.

As for `CCC1(c2ccccc2)C(=O)NCNC1=O` [PRIMIDONE], the IC50 (on Bile salt export pump; in assay [1]; in assay [2]; in assay [3]) was over 133 µM in each case.

As for `CCCN(CCC)S(=O)(=O)c1ccc(C(=O)O)cc1` [PROBENECID], the IC50 (on Bile salt export pump; in assay [1]; in assay [2]; in assay [3]) was over 133 µM in each case.

As to `CNNCc1ccc(C(=O)NC(C)C)cc1` [PROCARBAZINE HYDROCHLORIDE], the IC50 (at Bile salt export pump; in assay [1]; in assay [2]; in assay [3]) was over 133 µM throughout.

As for `CC(CN1c2ccccc2Sc2ccccc21)N(C)C` (centres undefined) [PROMETHAZINE], the IC50 (on Bile salt export pump; in assay [1]; in assay [2]; in assay [3]) was over 133 µM each time.

In the case of `CCCNCC(O)COc1ccccc1C(=O)CCc1ccccc1` (centres undefined) [PROPAFENONE], the IC50 (at Bile salt export pump; in assay [1]; in assay [2]; in assay [3]) was over 133 µM each time.

Consider `CCCc1cc(=O)[nH]c(=S)[nH]1` [PROPYLTHIOURACIL], for which the IC50 (on Bile salt export pump; in assay [1]; in assay [2]; in assay [3]) was over 133 µM throughout.

For the compound `NC(=O)c1cnccn1` [PYRAZINAMIDE], the IC50 (at Bile salt export pump; in assay [1]; in assay [2]; in assay [3]) was over 133 µM each time.

For the compound `O=c1c(O)c(-c2ccc(O)c(O)c2)oc2cc(O)cc(O)c12` [QUERCETIN], the IC50 at Bile salt export pump is over 133 µM; in assay [1], over 133 µM; in assay [2], over 133 µM; in assay [3] it was 20.8 µM.

Regarding `C=C[C@H]1C[N@@]2CC[C@H]1C[C@@H]2[C@@H](O)c1ccnc2ccc(OC)cc12` [QUINIDINE], the IC50 at Bile salt export pump was over 133 µM; in assay [1], over 133 µM; in assay [2], over 133 µM; in assay [3], 45.8 µM.

`C=C[C@H]1C[N@@]2CC[C@H]1C[C@H]2[C@H](O)c1ccnc2ccc(OC)cc12` [QUININE]: the IC50 (at Bile salt export pump; in assay [1]; in assay [2]; in assay [3]) was over 133 µM throughout.

With `CC(=O)SCC(Cc1ccccc1)C(=O)NCC(=O)OCc1ccccc1` (centres undefined) [RACECADOTRIL], the IC50 on Bile salt export pump was 20.3 µM; in assay [1], over 133 µM; in assay [2], 99 µM; in assay [3], over 133 µM.

In the case of `Cc1nc2ccc(CN(C)c3ccc(C(=O)N[C@@H](CCC(=O)O)C(=O)O)s3)cc2c(=O)[nH]1` [RALTITREXED], the IC50 (at Bile salt export pump; in assay [1]; in assay [2]; in assay [3]) was over 133 µM each time.

On to `CCC(=O)NCC[C@@H]1CCc2ccc3c(c21)CCO3` [RAMELTEON], for which the IC50 (at Bile salt export pump; in assay [1]; in assay [2]; in assay [3]) was over 133 µM each time.

`C#CCN[C@@H]1CCc2ccccc21` [RASAGILINE MESYLATE]: the IC50 (at Bile salt export pump; in assay [1]; in assay [2]; in assay [3]) was over 133 µM each time.

Regarding `CCN1CCC[C@H]1CNC(=O)c1c(OC)ccc(Br)c1OC` [REMOXIPRIDE], the IC50 (at Bile salt export pump; in assay [1]; in assay [2]; in assay [3]) was over 133 µM throughout.

For the compound `NC(=O)c1ncn([C@@H]2O[C@H](CO)[C@@H](O)[C@H]2O)n1` [RIBAVIRIN], the IC50 (at Bile salt export pump; in assay [1]; in assay [2]; in assay [3]) was over 133 µM throughout.

`CO[C@H]1/C=C/O[C@@]2(C)Oc3c(C)c(O)c4c(O)c(c5c(nc6cc(C)ccn65)c4c3C2=O)NC(=O)/C(C)=C\C=C\[C@H](C)[C@H](O)[C@@H](C)[C@@H](O)[C@@H](C)[C@H](OC(C)=O)[C@@H]1C` [RIFAXIMIN]: the half-inhibitory concentration (IC50) is 42 µM at Bile salt export pump, 15.4 µM in assay [1], 65 µM in assay [2] and 30.2 µM in assay [3].

On to `Nc1nc2ccc(OC(F)(F)F)cc2s1` [RILUZOLE], for which the IC50 (on Bile salt export pump; in assay [1]; in assay [2]; in assay [3]) was over 133 µM throughout.

On to `Cc1c(C(=O)NN2CCCCC2)nn(-c2ccc(Cl)cc2Cl)c1-c1ccc(Cl)cc1` [RIMONABANT], for which the IC50 at Bile salt export pump is 25 µM; in assay [1], over 133 µM; in assay [2], over 133 µM; in assay [3], over 133 µM.

As for `O=C(NC[C@H]1CN(c2ccc(N3CCOCC3=O)cc2)C(=O)O1)c1ccc(Cl)s1` [RIVAROXABAN], the IC50 (on Bile salt export pump; in assay [1]; in assay [2]; in assay [3]) was over 133 µM in each case.

Turning to `CN(C)CCc1c[nH]c2ccc(Cn3cncn3)cc12` [RIZATRIPTAN BENZOATE], the IC50 (at Bile salt export pump; in assay [1]; in assay [2]; in assay [3]) was over 133 µM throughout.

Regarding `C=CC[N+]1([C@H]2C[C@H]3[C@@H]4CC[C@H]5C[C@H](O)[C@@H](N6CCOCC6)C[C@]5(C)[C@H]4CC[C@]3(C)[C@H]2OC(C)=O)CCCC1` [ROCURONIUM BROMIDE], the IC50 (on Bile salt export pump; in assay [1]; in assay [2]; in assay [3]) was over 133 µM throughout.
